Laboratory results as given in patent US10703764B2, “Benzopiperazine compositions as BET bromodomain inhibitors” (FORMA Therapeutics, Inc., priority 2013, dated 2020).
pIC50: −log10 of the molar value.

Legend:
[1] = target: T1, BRD4 BD1 (Homo sapiens, UniProt O60885); experiment: AlphaScreen binding assay, BRD4 Bromodomain 1
T1 construct: made in house
How it was run: (§1)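 An AlphaScreen competition format was used with His-BRD4 BD1 or BD2 and biotin-H4 K5/8/12/16-acetyl peptide, each at matched final levels of 50 nM (BD1) or 100 nM (BD2). Incubation in HEPES/NaCl buffer with 0.1% BSA and 0.01% Triton X-100 ran ≥1 h before IC50 determination.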

[2] = target: T2, BRD4 BD2 (Homo sapiens, UniProt O60885); experiment: AlphaScreen binding assay, BRD4 Bromodomain 2
T2 construct: made in house
How it was run: as §1

Row | pIC50 [1] | pIC50 [2] | SMILES
1 | < 5.00 | < 6.30 | CCc1ccc(CN2C[C@H](C)N(C(C)=O)c3ccccc32)cc1 [Example I-901]
2 | < 5.00 | < 6.30 | COc1cc(CN2C[C@H](C)N(C(C)=O)c3ccccc32)cc(OC)c1 [Example I-902]
3 | < 5.00 | < 6.30 | CC(=O)N1c2ccccc2N(Cc2cc(C)ccc2C)C[C@@H]1C [Example I-903]
4 | < 5.00 | < 6.30 | CC(=O)N1c2ccccc2N(Cc2ccc(O)c(C)c2)C[C@@H]1C [Example I-904]
5 | < 5.00 | < 6.30 | CC(=O)N1c2ccccc2N(Cc2cc(C)nn2C)C[C@@H]1C [Example I-905]
6 | < 5.00 | 6.30 to 7.30 | CC(=O)N1c2ccccc2N(Cc2ccccc2OCCN(C)C)C[C@@H]1C [Example I-906]
7 | < 5.00 | < 6.30 | CC(=O)N1c2ccccc2N(Cc2ccc(OCCN(C)C)cc2)C[C@@H]1C [Example I-907]
8 | < 5.00 | 6.30 to 7.30 | CC(=O)N1c2ccccc2N(Cc2cccc(OCCN(C)C)c2)C[C@@H]1C [Example I-908]
9 | < 5.00 | 6.30 to 7.30 | CC(=O)N1c2ccccc2N(Cc2ccccc2)C[C@@H]1C [Example I-909]
10 | < 5.00 | < 6.30 | CC(=O)N1c2ccccc2N(CC2CCCCC2)C[C@@H]1C [Example I-910]
11 | < 5.00 | < 6.30 | CC(=O)N1c2ccccc2N(Cc2ccc(C(F)(F)F)nc2)C[C@@H]1C [Example I-911]
12 | < 5.00 | < 6.30 | CC(=O)N1c2ccccc2N(Cc2ccncc2)C[C@@H]1C [Example I-912]
13 | < 5.00 | < 6.30 | CC(=O)N1c2ccccc2N(Cc2ccccn2)C[C@@H]1C [Example I-913]
14 | < 5.00 | < 6.30 | COc1cncc(CN2C[C@H](C)N(C(C)=O)c3ccccc32)c1 [Example I-914]
15 | < 5.00 | < 6.30 | CC(=O)N1c2ccccc2N(Cc2nccs2)C[C@@H]1C [Example I-915]
16 | < 5.00 | < 6.30 | CC(=O)N1c2ccccc2N(Cc2ccc(-c3ccccc3)cc2)C[C@@H]1C [Example I-916]
17 | < 5.00 | < 6.30 | CC(=O)N1c2ccccc2N(Cc2ccc(OC(C)C)cc2)C[C@@H]1C [Example I-917]
18 | < 5.00 | < 6.30 | CC(=O)N1c2ccccc2N(Cc2cccc(Oc3ccccc3)c2)C[C@@H]1C [Example I-918]
19 | < 5.00 | < 6.30 | CC(=O)N1c2ccccc2N(Cc2ccc(Oc3ccccc3)cc2)C[C@@H]1C [Example I-919]
20 | < 5.00 | < 6.30 | CC(=O)N1c2ccccc2N(Cc2ccc3c(c2)OCO3)C[C@@H]1C [Example I-920]
21 | < 5.00 | 6.30 to 7.30 | CC(=O)N1c2ccccc2N(Cc2cccc3c2OCO3)C[C@@H]1C [Example I-921]
22 | < 5.00 | < 6.30 | CC(=O)N1c2ccccc2N(Cc2ccc(N3CCOCC3)nc2)C[C@@H]1C [Example I-922]
23 | < 5.00 | < 6.30 | CC(=O)N1c2ccccc2N(Cc2ccc(O)cc2)C[C@@H]1C [Example I-923]

Row | pIC50 [1] | pIC50 [2] | SMILES
24 | < 5.00 | < 6.30 | CC(=O)N1c2ccccc2N(Cc2cccnc2)C[C@@H]1C [Example I-924]
25 | < 5.00 | < 6.30 | CC(=O)N1c2ccccc2N(CC2CCOCC2)C[C@@H]1C [Example I-925]
26 | < 5.00 | < 6.30 | CC(=O)N1c2ccccc2N(Cc2cncn2C)C[C@@H]1C [Example I-926]
27 | < 5.00 | < 6.30 | CCC[C@@H](C)CN1C[C@H](C)N(C(C)=O)c2ccccc21 [Example I-927]
28 | < 5.00 | < 6.30 | CC(=O)N1CCC[C@H](CN2C[C@H](C)N(C(C)=O)c3ccccc32)C1 [Example I-928]
29 | < 5.00 | < 6.30 | CC(=O)N1c2ccccc2N(CC2CCN(C(C)C)CC2)C[C@@H]1C [Example I-929]
30 | < 5.00 | < 6.30 | COc1ccc(OC)c(S(=O)(=O)N2C[C@H](C)N(C(C)=O)c3ccccc32)c1 [Example I-930]
31 | < 5.00 | < 6.30 | CC(=O)N1c2ccccc2N(S(=O)(=O)c2ccccc2F)C[C@@H]1C [Example I-931]
32 | < 5.00 | < 6.30 | CC(=O)N1c2ccccc2N(S(=O)(=O)c2ccccc2)C[C@@H]1C [Example I-932]
33 | < 5.00 | < 6.30 | CC(=O)N1c2ccccc2N(S(=O)(=O)c2ccn(C)n2)C[C@@H]1C [Example I-933]
34 | < 5.00 | < 6.30 | CC(=O)N1c2ccccc2N(S(=O)(=O)c2cccnc2)C[C@@H]1C [Example I-934]
35 | < 5.00 | < 6.30 | CC(=O)N1c2ccccc2N(S(=O)(=O)c2ccc(Cl)cc2)C[C@@H]1C [Example I-935]
36 | < 5.00 | < 6.30 | COc1ccc(S(=O)(=O)N2C[C@H](C)N(C(C)=O)c3ccccc32)cc1 [Example I-936]
37 | < 5.00 | < 6.30 | CC(=O)N1c2ccccc2N(S(=O)(=O)c2ccc(C(F)(F)F)cc2)C[C@@H]1C [Example I-937]
38 | < 5.00 | < 6.30 | CC(=O)N1c2ccccc2N(S(=O)(=O)c2ccc(C#N)cc2)C[C@@H]1C [Example I-938]
39 | < 5.00 | < 6.30 | CC(=O)N1c2ccccc2N(S(=O)(=O)c2ccc(OC(F)(F)F)cc2)C[C@@H]1C [Example I-939]
40 | < 5.00 | < 6.30 | CC(=O)N1c2ccccc2N(S(=O)(=O)c2ccc(C)cc2)C[C@@H]1C [Example I-940]
41 | < 5.00 | < 6.30 | CC(=O)N1c2ccccc2N(S(=O)(=O)c2ccccc2C)C[C@@H]1C [Example I-941]
42 | < 5.00 | < 6.30 | CC(=O)N1c2ccccc2N(S(=O)(=O)c2ccccc2Cl)C[C@@H]1C [Example I-942]
43 | < 5.00 | < 6.30 | CC(=O)N1c2ccccc2N(S(=O)(=O)c2ccccc2C#N)C[C@@H]1C [Example I-943]
44 | < 5.00 | < 6.30 | CC(=O)N1c2ccccc2N(S(=O)(=O)c2cccc(C#N)c2)C[C@@H]1C [Example I-944]
45 | < 5.00 | < 6.30 | COc1cccc(S(=O)(=O)N2C[C@H](C)N(C(C)=O)c3ccccc32)c1 [Example I-945]
46 | < 5.00 | < 6.30 | CC(=O)N1c2ccccc2N(S(=O)(=O)c2cccc(Cl)c2)C[C@@H]1C [Example I-946]

Row | pIC50 [1] | pIC50 [2] | SMILES
47 | < 5.00 | < 6.30 | CC(=O)N1c2ccccc2N(S(=O)(=O)c2cccc(C(F)(F)F)c2)C[C@@H]1C [Example I-947]
48 | < 5.00 | < 6.30 | CC(=O)N1c2ccccc2N(S(=O)(=O)c2cccc(C)c2)C[C@@H]1C [Example I-948]
49 | < 5.00 | < 6.30 | CC(=O)N1c2ccccc2N(S(=O)(=O)c2ccc(C)cc2C)C[C@@H]1C [Example I-949]
50 | < 5.00 | < 6.30 | COc1ccc(S(=O)(=O)N2C[C@H](C)N(C(C)=O)c3ccccc32)c(OC)c1 [Example I-950]
51 | < 5.00 | < 6.30 | CC(=O)N1c2ccccc2N(S(=O)(=O)c2ccc(C(F)(F)F)nc2)C[C@@H]1C [Example I-951]
52 | < 5.00 | < 6.30 | CC(=O)N1c2ccccc2N(S(=O)(=O)C2CC2)C[C@@H]1C [Example I-952]
53 | < 5.00 | < 6.30 | CC(=O)N1c2ccccc2N(S(=O)(=O)Cc2ccccc2Cl)C[C@@H]1C [Example I-953]
54 | < 5.00 | < 6.30 | CC(=O)N1c2ccccc2N(S(=O)(=O)Cc2ccccc2)C[C@@H]1C [Example I-954]
55 | < 5.00 | < 6.30 | CC(=O)N1c2ccccc2N(S(=O)(=O)Cc2cccc(Cl)c2)C[C@@H]1C [Example I-955]
56 | < 5.00 | < 6.30 | CC(=O)N1c2ccccc2N(S(=O)(=O)c2cn(C)c(C)n2)C[C@@H]1C [Example I-956]
57 | < 5.00 | < 6.30 | CC(=O)c1ccc(S(=O)(=O)N2C[C@H](C)N(C(C)=O)c3ccccc32)cc1 [Example I-957]
58 | < 5.00 | < 6.30 | CC(=O)N1c2ccccc2N(S(=O)(=O)Cc2cccc(C#N)c2)C[C@@H]1C [Example I-958]
59 | < 5.00 | < 6.30 | COc1cc(Cl)ccc1S(=O)(=O)N1C[C@H](C)N(C(C)=O)c2ccccc21 [Example I-959]
60 | < 5.00 | < 6.30 | COc1ccc(S(=O)(=O)N2C[C@H](C)N(C(C)=O)c3ccccc32)c(C)c1 [Example I-960]
61 | < 5.00 | < 6.30 | CC(=O)N1c2ccccc2N(S(=O)(=O)c2cn(C)cn2)C[C@@H]1C [Example I-961]
62 | < 5.00 | < 6.30 | CC(=O)N1c2ccccc2N(S(=O)(=O)Cc2ccc(Cl)cc2)C[C@@H]1C [Example I-962]
63 | < 5.00 | < 6.30 | CC(=O)N1c2ccccc2N(S(=O)(=O)Cc2ccc(C#N)cc2)C[C@@H]1C [Example I-963]
64 | 5.00 to 6.00 | 6.30 to 7.30 | CC(=O)N1c2ccc(-c3ccc(S(C)(=O)=O)cc3)cc2N(C(=O)Nc2ccccc2)C[C@@H]1C [Example I-964]
65 | < 5.00 | < 6.30 | CCNC(=O)N1C[C@H](C)N(C(C)=O)c2ccc(-c3ccc(S(C)(=O)=O)cc3)cc21 [Example I-965]
66 | < 5.00 | < 6.30 | CC(=O)N1c2ccc(-c3ccc(S(C)(=O)=O)cc3)cc2N(C(=O)Nc2ccccc2C)C[C@@H]1C [Example I-966]
67 | < 5.00 | 6.30 to 7.30 | COc1cccc(NC(=O)N2C[C@H](C)N(C(C)=O)c3ccc(-c4ccc(S(C)(=O)=O)cc4)cc32)c1 [Example I-967]
68 | 5.00 to 6.00 | 6.30 to 7.30 | CC(=O)N1c2ccc(-c3ccc(S(C)(=O)=O)cc3)cc2N(C(=O)NC2CCCC2)C[C@@H]1C [Example I-968]
